# Laboratory results from patent US11814391B2, “Macrocyclic compounds for the treatment of medical disorders” (Achillion Pharmaceuticals, Inc., priority 2018, dated 2023).
# Target: Human Factor D (Homo sapiens (Human), UniProt P00746)
# Test: Human Factor D assay
# Type: biochemical
# Conditions: not given
# Procedure: The assay of Example 3 was used to determine the IC50's of the compounds. Other standard factor D inhibition assays are also available.
# Human Factor D (purified from human serum, Complement Technology, Inc.) at 80 nM final concentration is incubated with test compound at various concentrations for 5 min at room temperature in 50 mM Tris, 1M NaCl, pH 7.5. A synthetic substrate Z-L-Lys-SBzI and DTNB (Ellman's reagent) are added to final concentrations of 100 μM each. Absorbance at 405 nm (A405) is recorded at 30 second intervals for 30 min using a microplate spectrophotometer. IC50 values are calculated by nonlinear regression of complement Factor D reaction rates as a function of test compound concentration.
# Sequence of Human Factor D (P00746 26-253): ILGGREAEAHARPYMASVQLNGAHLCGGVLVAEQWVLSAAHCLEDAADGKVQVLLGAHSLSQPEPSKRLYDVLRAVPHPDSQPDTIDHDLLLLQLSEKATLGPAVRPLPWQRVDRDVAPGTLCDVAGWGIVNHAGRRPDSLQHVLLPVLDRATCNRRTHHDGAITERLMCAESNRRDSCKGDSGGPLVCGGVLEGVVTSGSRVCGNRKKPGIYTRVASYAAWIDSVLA
row,Compound,IC50
1,"CC(=O)c1nn2c3c(cc(-c4cnc(C)nc4)cc13)CCCCCCCCCCN([C@@H](C)C(=O)Nc1nc(Br)ccc1C)C(=O)C2 [Compound 35, (S)-2-(2-acetyl-4-(2-methylpyrimidin-5-yl)-17-oxo-8,9,10,11,12,13,14,15,17,18-decahydro-6H-[1,4]diazacyclohexadecino[15,16,1-hi]indazol-16(7H)-yl)-N-(6-bromo-3-methylpyridin-2-yl)propanamide]",1000 to 10000 nM

# Same assay, conditions: Human Factor D 80 nM, substrate Z-L-Lys-SBzl, A405; read-out: IC50 (Stars)
row,Compound,IC50
1,"CC(=O)c1nn2c3c(cc(CCC(C)C)cc13)CCCCCCC(=O)NC[C@@]13C[C@@H](C(=O)Nc4nc(C(F)(F)F)ccc4C)N(C(=O)C2)[C@@H]1C3 [Compound 20, (4^1R,4^3S,4^5R)-1^3-acetyl-1^5-isopentyl-N-(3-methyl-6-(trifluoromethyl)pyridin-2-yl)-3,7-dioxo-1^1H-4^2,6-diaza-1(1,7)-indazola-4(2,5)-bicyclo[3.1.0]hexanacyclotridecaphane-4^3-carboxamide]",< 1000 nM
2,"CC(=O)c1nn2c3c(cc(C(C)C)cc13)CCCCCCC(=O)NC[C@@]13C[C@@H](C(=O)Nc4nc(C(F)(F)F)ccc4C)N(C(=O)C2)[C@@H]1C3 [Compound 21, (4^1R,4^3S,4^5R)-1^3-Acetyl-1^5-isopropyl-N-(3-methyl-6-(trifluoromethyl)pyridin-2-yl)-3,7-dioxo-1^1H-4^2,6-diaza-1(1,7)-indazola-4(2,5)-bicyclo[3.1.0]hexanacyclotridecaphane-4^3-carboxamide]",< 1000 nM
3,"CC(=O)c1nn2c3c(cc(-c4cnc5cc(C)nn5c4)cc13)CCCCC[C@@H](C)C(=O)NC[C@@]13C[C@@H](C(=O)Nc4nc(C(F)(F)F)ccc4C)N(C(=O)C2)[C@@H]1C3 [Compound 22, (4^1R,4^3S,4^5R,8R)-1^3-acetyl-8-methyl-N-(3-methyl-6-(trifluoromethyl)pyridin-2-yl)-15-(2-methylpyrazolo[1,5-a]pyrimidin-6-yl)-3,7-dioxo-1^1H-4^2,6-diaza-1(1,7)-indazola-4(2,5)-bicyclo[3.1.0]hexanacyclotridecaphane-4^3-carboxamide]",< 1000 nM
4,"CC(=O)c1nn2c3c(cc(-c4cnc(C)cn4)cc13)CCCCC[C@@H](C)C(=O)NC[C@@]13C[C@@H](C(=O)Nc4nc(C(F)(F)F)ccc4C)N(C(=O)C2)[C@@H]1C3 [Compound 23, (4^1R,4^3S,4^5R,8R)-1^3-acetyl-8-methyl-N-(3-methyl-6-(trifluoromethyl)pyridin-2-yl)-15-(5-methylpyrazin-2-yl)-3,7-dioxo-1^1H-4^2,6-diaza-1(1,7)-indazola-4(2,5)-bicyclo[3.1.0]hexanacyclotridecaphane-4^3-carboxamide]",< 1000 nM
5,"CC(=O)c1nn2c3c(cc(NCC(C)C)cc13)CCCCCCC(=O)NC[C@@]13C[C@@H](C(=O)Nc4nc(C(F)(F)F)ccc4C)N(C(=O)C2)[C@@H]1C3 [Compound 24, (4^1R,4^3S,4^5R)-1^3-acetyl-15-(isobutylamino)-N-(3-methyl-6-(trifluoromethyl)pyridin-2-yl)-3,7-dioxo-1^1H-4^2,6-diaza-1(1,7)-indazola-4(2,5)-bicyclo[3.1.0]hexanacyclotridecaphane-4^3-carboxamide]",< 1000 nM
6,"CC(=O)c1nn2c3c(cc(NC(C)C)cc13)CCCCCCC(=O)NC[C@@]13C[C@@H](C(=O)Nc4nc(C(F)(F)F)ccc4C)N(C(=O)C2)[C@@H]1C3 [Compound 25, (4^1R,4^3S,4^5R)-1^3-acetyl-1^5-(isopropylamino)-N-(3-methyl-6-(trifluoromethyl)pyridin-2-yl)-3,7-dioxo-1^1H-4^2,6-diaza-1(1,7)-indazola-4(2,5)-bicyclo[3.1.0]hexanacyclotridecaphane-4^3-carboxamide]",< 1000 nM
7,"CC(=O)c1nn2c3c(cc(-c4cnc(C)nc4)cc13)CCCCC(C)(C)CC(=O)NC[C@@]13C[C@@H](C(=O)Nc4nc(C(F)(F)F)ccc4C)N(C(=O)C2)[C@@H]1C3 [Compound 26, (4^1R,4^3S,4^5R)-1^3-acetyl-9,9-dimethyl-N-(3-methyl-6-(trifluoromethyl)pyridin-2-yl)-15-(2-methylpyrimidin-5-yl)-3,7-dioxo-1^1H-4^2,6-diaza-1(1,7)-indazola-4(2,5)-bicyclo[3.1.0]hexanacyclotridecaphane-4^3-carboxamide]",< 1000 nM
8,"CNc1cc2c3c(c1)c(C(C)=O)nn3CC(=O)N1[C@H](C(=O)Nc3nc(C(F)(F)F)ccc3C)C[C@@]3(CNC(=O)CCCCCC2)C[C@@H]13 [Compound 27, (4^1R,4^3S,4^5R)-1^3-acetyl-N-(3-methyl-6-(trifluoromethyl)pyridin-2-yl)-1^5-(methylamino)-3,7-dioxo-1^1H-4^2,6-diaza-1(1,7)-indazola-4(2,5)-bicyclo[3.1.0]hexanacyclotridecaphane-4^3-carboxamide]",< 1000 nM
9,"CC(=O)c1nn2c3c(cc(CC(C)C)cc13)CCCCCCC(=O)NC[C@@]13C[C@@H](C(=O)Nc4nc(C(F)(F)F)ccc4C)N(C(=O)C2)[C@@H]1C3 [Compound 28, (4^1R,4^3S,4^5R)-1^3-acetyl-1^5-isobutyl-N-(3-methyl-6-(trifluoromethyl)pyridin-2-yl)-3,7-dioxo-1^1H-4^2,6-diaza-1(1,7)-indazola-4(2,5)-bicyclo[3.1.0]hexanacyclotridecaphane-4^3-carboxamide]",< 1000 nM
10,"CC(=O)c1nn2c3c(cc(-c4cnc(C)nc4)cc13)CCCCCCC(=O)NC[C@@]13C[C@@H](C(=O)NC(C)[C@H]4CC4(Cl)Cl)N(C(=O)C2)[C@@H]1C3 (stereo partly drawn) [Compound 29, (4^1R,4^3S,4^5R)-1^3-acetyl-N-((R)-1-((R)-2,2-dichlorocyclopropyl)ethyl)-1^5-(2-methylpyrimidin-5-yl)-3,7-dioxo-1^1H-4^2,6-diaza-1(1,7)-indazola-4(2,5)-bicyclo[3.1.0]hexanacyclotridecaphane-4^3-carboxamide]",< 1000 nM
11,"CC(=O)c1nn2c3c(cc(-c4cnc(C)nc4)cc13)CCCCCCC(=O)NC[C@@]13C[C@@H](C(=O)N[C@@H](C)[C@H]4CC4(Cl)Cl)N(C(=O)C2)[C@@H]1C3 [Compound 30, (4^1R,4^3S,4^5R)-1^3-acetyl-N-((S)-1-((R)-2,2-dichlorocyclopropyl)ethyl)-1^5-(2-methylpyrimidin-5-yl)-3,7-dioxo-1^1H-4^2,6-diaza-1(1,7)-indazola-4(2,5)-bicyclo[3.1.0]hexanacyclotridecaphane-4^3-carboxamide]",< 1000 nM
12,"CC(=O)c1nn2c3c(cc(-c4cnc(C)nc4)cc13)CCCC[C@H](C)CC(=O)NC[C@@]13C[C@@H](C(=O)Nc4nc(C(F)(F)F)ccc4C)N(C(=O)C2)[C@@H]1C3 [Compound 31, (4^1R,4^3S,4^5R,9S)-1^3-acetyl-9-methyl-N-(3-methyl-6-(trifluoromethyl)pyridin-2-yl)-1^5-(2-methylpyrimidin-5-yl)-3,7-dioxo-1^1H-4^2,6-diaza-1(1,7)-indazola-4(2,5)-bicyclo[3.1.0]hexanacyclotridecaphane-4^3-carboxamide]",< 1000 nM
13,"CC(=O)c1nn2c3c(cc(-c4cnc(C)nc4)cc13)CCCCCCCNC[C@@]13C[C@@H](C(=O)Nc4nc(C(F)(F)F)ccc4C)N(C(=O)C2)[C@@H]1C3 [Compound 32, (4^1R,4^3S,4^5R)-1^3-acetyl-N-(3-methyl-6-(trifluoromethyl)pyridin-2-yl)-1^5-(2-methylpyrimidin-5-yl)-3-oxo-1^1H-4^2,6-diaza-1(1,7)-indazola-4(2,5)-bicyclo[3.1.0]hexanacyclotridecaphane-4^3-carboxamide]",< 1000 nM
14,"CC(=O)c1nn2c3c(cc(-c4cnc(C)nc4)cc13)CNC(=O)CCCCOC[C@@]13C[C@@H](C(=O)Nc4nc(C(F)(F)F)ccc4C)N(C(=O)C2)[C@@H]1C3 [Compound 33, (4^1R,4^3S,4^5S)-1^3-acetyl-N-(3-methyl-6-(trifluoromethyl)pyridin-2-yl)-1^5-(2-methylpyrimidin-5-yl)-3,11-dioxo-1^1H-6-oxa-4^2,12-diaza-1(1,7)-indazola-4(2,5)-bicyclo[3.1.0]hexanacyclotridecaphane-4^3-carboxamide]",< 1000 nM
15,"CC(=O)c1nn2c3c(cc(-c4cnc(C)nc4)cc13)CCCC[C@@H](C)CC(=O)NC[C@@]13C[C@@H](C(=O)Nc4nc(C(F)(F)F)ccc4C)N(C(=O)C2)[C@@H]1C3 [Compound 34, (4^1R,4^3S,4^5R,9R)-1^3-acetyl-9-methyl-N-(3-methyl-6-(trifluoromethyl)pyridin-2-yl)-1^5-(2-methylpyrimidin-5-yl)-3,7-dioxo-1^1H-4^2,6-diaza-1(1,7)-indazola-4(2,5)-bicyclo[3.1.0]hexanacyclotridecaphane-4^3-carboxamide]",< 1000 nM
16,"CC(=O)c1nn2c3c(cc(-c4cnc(C)nc4)cc13)CNCCCCCOC[C@@]13C[C@@H](C(=O)Nc4nc(C(F)(F)F)ccc4C)N(C(=O)C2)[C@@H]1C3 [Compound 36, (4^1R,4^3S,4^5S)-1^3-acetyl-N-(3-methyl-6-(trifluoromethyl)pyridin-2-yl)-1^5-(2-methylpyrimidin-5-yl)-3-oxo-1^1H-6-oxa-4^2,12-diaza-1(1,7)-indazola-4(2,5)-bicyclo[3.1.0]hexanacyclotridecaphane-4^3-carboxamide]",< 1000 nM
17,"CC(=O)c1nn2c3c(cc(-c4cnc(C)nc4)cc13)CNCC/C=C/COC[C@@]13C[C@@H](C(=O)Nc4nc(C(F)(F)F)ccc4C)N(C(=O)C2)[C@@H]1C3 [Compound 37, (4^1R,4^3S,4^5S,E)-1^3-acetyl-N-(3-methyl-6-(trifluoromethyl)pyridin-2-yl)-1^5-(2-methylpyrimidin-5-yl)-3-oxo-1^1H-6-oxa-4^2,12-diaza-1(1,7)-indazola-4(2,5)-bicyclo[3.1.0]hexanacyclotridecaphan-8-ene-4^3-carboxamide]",< 1000 nM
